According to patent US20230218654A1, “COMPOSITIONS AND METHODS FOR TREATING HYPERGLYCEMIA IN TYPE-2 DIABETES” (The Board of Regents of the university of Oklahoma, priority 2020, published 2023):
“Also recorded” adds a separate entry of the source.

Assays:
male C57BL/6J mice = assay: Glucose tolerance test (GTT); assay type: in vivo; details: 60 mg/kg SQ twice; for glucose tolerance in GTT: 6 h fast
Description: On the day of testing, mice were fasted for 6 h (from 9 am to 3 pm). Mice were then given 2 g/kg D-glucose via IP injection. Blood glucose was measured with an UltraTouch glucometer in time course over a 120-minute period.
(§1) Mice were treated with 2 doses of MLN4924 as described. After the second injection at 9 am, mice were fasted for 6 h from 9 am to 3 pm. Mice were injected intraperitoneally […] for PTT, and 0.5 U/kg insulin for ITT. Blood glucose was measured with a OneTouch Ultra glucose meter.

[1] = system: male mice fed WD for 6 weeks; assay: Insulin tolerance test (ITT); assay type: in vivo; details: WD 6 weeks, 60 mg/kg SQ twice
Description: Male C7BL/6J mice were first fed WD for 6 weeks, and then treated with 60 mg/kg MLN6924 via subcutaneous (SQ) injection at 5 pm on day 1 and 9 am on day 2. Mice were fasted from 9 am to 3 pm on day 2 and insulin tolerance test was performed with 0.5 U/kg insulin i.p. injection (n=5). All results are expressed as mean ± SEM. “*”, p<0.05, vs. Vehicle group at the same time point. Unpaired Student’s t-test was used to calculate the p value.
as §1

[2] = system: INS-1 832/13 rat pancreas β cells; assay: Insulin secretion assay in INS-1 832/13 cells; assay type: cell-based
Description: Insulin secreted into the medium was measured, (c) Total remaining intracellular insulin was measured, (d) The % secreted insulin was the fraction of total medium insulin over the sum of insulin in the medium and cells. Results are from 3 independent experiments and expressed as mean ± SEM. Two-way ANOVA and Tukey post hoc test were used to calculate the p values.
INS-1 832/13 rat insulinoma cell line was purchased from Sigma-Aldrich (St. Louis, MO). Cells were cultured in 24-well plate in RPMI-1640 growth medium until 100% confluent. Cells were then treated with vehicle (DMSO) or 500 nM MLN4924 for 5 hrs. Cells were then incubated with 0.5 ml secretion assay buffer (SAB, 114 mM NaCl, 4.7 mM KCl, 1.2 mM KH2PO4, 1.16 mM MgSO4, 20 mM HEPES pH 7.2, 25.5 mM NaHCO3, 2.5 mM CaCl2, and 0.2% BSA) containing 2.5 mM glucose and either vehicle or 500 nM MLN4924 for 1 hr. This step was repeated once. Next, SAB containing 12 mM glucose (0.5 ml) was added to cells to stimulate insulin secretion for 1 hr. The SAB was then collected and cells were lysed in 0.2 ml 1X RIPA buffer. Insulin concentration in SAB and cell lysates was measured with an ELISA assay kit.

In the case of NS(=O)(=O)OC[C@@H]1C[C@@H](n2ccc3c(N[C@H]4CCc5ccccc54)ncnc32)C[C@@H]1O [MLN4924, ((1S,2S,4R)-4-(4-((1S)-2,3-dihydro-1H-inden-1-ylamino)-7H-pyrrolo[2,3-d]pyrimidin-7-yl)-2-hydroxycyclopentyl) methyl sulfamate], the “peak blood glucose at 30 minutes post glucose challenge” value (male C57BL/6J mice; vs vehicle) is reported as “significantly lower”, the “glucose tolerance in GTT” value (male C57BL/6J mice; 3-week WD-fed mice) is reported as “significantly improved glucose tolerance” and the “basal glucose levels after 6 h fasting” value (male C57BL/6J mice; chow condition) is reported as “did not significantly decrease basal glucose levels”. The “glucose tolerance in GTT” value (male C57BL/6J mice; chow-fed mice, 60 mg/kg) was “significantly improved glucose tolerance; also recorded: improved overall glucose tolerance”, the “plasma glucose in response to insulin after 1 h” value ([1]; 0.5 U/kg insulin i.p., similar in vehicle group) was ~ 25 mg/dL and the basal glucose ([1]; 6 h fast) was “lower basal glucose”. For the same compound, the neddylation inhibition ([2]; 500 nM MLN4924, 7 hrs) was “strong neddylation inhibition”, the basal insulin secretion ([2]; 500 nM MLN4924, 2.5 mM glucose) was “did not affect” and the glucose-stimulated insulin secretion ([2]; 500 nM MLN4924, 12 mM glucose) was “did not affect”.
